Source: ChEMBL document CHEMBL2203171, “The use of small molecule probes to study spatially separated stimulus-induced signaling pathways” (Bioorg Med Chem Lett, 2012)
Active and inactive are the calls of the source. The calls are words filed in the database; no cut-off is given here.

Legend:
Type in all cases: cell-based
[1] = biological target: T1, Inhibitor of nuclear factor kappa-B kinase subunit beta (Mus musculus) (UniProt O88351); assay: Inhibition of IKKbeta in C57BL/6 mouse BMDM cells assessed as inhibition of TNFalpha-induced IkappaBalpha degradation at 50 uM up to 90 mins by Western blot analysis
T1 sequence (whole entry): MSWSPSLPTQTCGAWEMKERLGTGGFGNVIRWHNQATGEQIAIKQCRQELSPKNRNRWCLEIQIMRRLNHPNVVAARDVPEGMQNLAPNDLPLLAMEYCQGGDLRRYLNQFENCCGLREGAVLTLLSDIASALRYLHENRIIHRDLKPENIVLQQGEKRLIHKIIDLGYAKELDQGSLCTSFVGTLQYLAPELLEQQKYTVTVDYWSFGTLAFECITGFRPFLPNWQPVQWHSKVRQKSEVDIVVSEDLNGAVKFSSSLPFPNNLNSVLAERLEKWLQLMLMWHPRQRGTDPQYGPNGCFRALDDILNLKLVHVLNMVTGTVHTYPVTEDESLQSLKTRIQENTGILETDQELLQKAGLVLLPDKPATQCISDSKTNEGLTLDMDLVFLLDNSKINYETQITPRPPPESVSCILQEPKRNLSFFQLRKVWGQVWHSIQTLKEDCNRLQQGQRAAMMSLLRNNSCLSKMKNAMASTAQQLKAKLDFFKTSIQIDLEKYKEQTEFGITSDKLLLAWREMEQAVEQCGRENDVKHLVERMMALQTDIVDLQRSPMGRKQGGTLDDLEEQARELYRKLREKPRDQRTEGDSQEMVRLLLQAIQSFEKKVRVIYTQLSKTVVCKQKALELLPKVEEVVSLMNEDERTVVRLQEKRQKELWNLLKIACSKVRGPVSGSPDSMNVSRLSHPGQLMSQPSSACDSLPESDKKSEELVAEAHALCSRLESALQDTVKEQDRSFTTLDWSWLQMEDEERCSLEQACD

[2] = biological target: T1, Inhibitor of nuclear factor kappa-B kinase subunit beta (Mus musculus); assay: Inhibition of IKKbeta in C57BL/6 mouse BMDM cells assessed as inhibition of TNFalpha-induced IkappaBalpha phosphorylation at 50 uM up to 90 mins by Western blot analysis
[3] = biological target: T2, MAP kinase p38 (Mus musculus) (UniProt P47811+O08911+Q9WUI1+Q9Z1B7); assay: Inhibition of MAPK p38 in C57BL/6 mouse BMDM cells assessed as inhibition of TNFalpha-induced phosphorylation at 50 uM up to 90 mins by Western blot analysis
[4] = biological target: T1, Inhibitor of nuclear factor kappa-B kinase subunit beta (Mus musculus); assay: Inhibition of IKKbeta in C57BL/6 mouse BMDM cells assessed as inhibition of LPS-induced IkappaBalpha degradation at 50 uM up to 90 mins by Western blot analysis
[5] = biological target: T1, Inhibitor of nuclear factor kappa-B kinase subunit beta (Mus musculus); assay: Inhibition of IKKbeta in C57BL/6 mouse BMDM cells assessed as inhibition of LPS-induced IkappaBalpha phosphorylation at 50 uM up to 90 mins by Western blot analysis
[6] = biological target: T2, MAP kinase p38 (Mus musculus); assay: Inhibition of MAPK p38 in C57BL/6 mouse BMDM cells assessed as inhibition of LPS-induced phosphorylation at 50 uM up to 90 mins by Western blot analysis

inhibition [1] | inhibition [2] | inhibition [3] | inhibition (active/not active) [4] | inhibition of IkappaBalpha phosphorylation (active/not active) [5] | inhibition [6] | Compound
inactive | inactive | inactive | inactive | inactive | inactive | COc1ccc(-c2ccc(C(C(=O)NC(C)(C)C)N(C(=O)CCc3ccc(O)c(O)c3)C(C)(C)C)cc2)cc1 (configuration not stated)
inactive | inactive | inactive | inactive | inactive | inactive | COc1ccc(C(=O)N(Cc2ccccn2)C(C(=O)NC(C)(C)C)c2ccc(-c3ccc(OC)cc3)cc2)cc1 (configuration not stated)
